Laboratory results from US20240024273A1, “TOPICAL ADMINISTRATION OF 2-(DIETHYLAMINO)ETHYL 2-(4-ISOBUTYLPHENYL)PROPRIONATE FOR TREATMENT OF DISEASES” (TECHFIELDS PHARMA CO., LTD., priority 2020, published 2024).

System: Mild to Moderate Osteoarthritis of the Knee
Assay: Phase 2 study: WOMAC (VAS) pain subscale score, target knee
Format: in vivo, human
Conditions: for Change of WOMAC pain score from baseline (±SEM) / Percentage of improvement from baseline, WOMAC pain score: all patients taken as active
Excerpt: This is a Phase 2, multicenter, randomized, double blind (within dose), placebo controlled, parallel group, proof of concept, and dose range finding study to evaluate the efficacy, safety, and PK of 2-(diethylamino)ethyl 2-(4-isobutylphenyl)propionate hydrochloride spray in adult subjects with clinically symptomatic mild to moderate OA of the knee. For subjects with bilateral knee pain, both knees will be treated, but the most symptomatic knee (i.e., the most painful knee as measured by the Western Ontario and McMaster University Osteoarthritis Index [WOMAC® 3.1] pain subscale score at Screening) will be designated as the target knee for efficacy analyses. For subjects with unilateral knee pain, only the symptomatic (target) knee will be treated.
After a Screening Period of up to 3 weeks and radiographic evaluation of the target knee joint space, a subject will be randomly assigned to 1 of 3 treatment groups in a 1:1:1 ratio with a 2:1 ratio of active:placebo within each treatment group (ie, 2 subjects to active treatment and 1 subject to placebo): • Group A: 8.75 mg 2-(diethylamino)ethyl 2-(4-isobutylphenyl)propionate/knee (2 sprays/knee, one spray to the medial surface and one spray to the lateral surface of the knee), twice daily (BID, approximately every 12 hours; n=50) or placebo (2 sprays/knee), BID (approximately every 12 hours; n=25) for a total of 4 sprays per knee per day; • Group B: 17.5 mg 2-(diethylamino)ethyl 2-(4-isobutylphenyl)propionate/knee (4 sprays/knee, one spray to the medial surface and one spray to the lateral surface of the knee, and one spray to front and one spray to the back of the knee), BID (approximately every 12 hours; n=50) or placebo (4 sprays/knee), BID (approximately every 12 hours; n=25) for a total of 8 sprays per knee per day; • Group C: 35 mg 2-(diethylamino)ethyl 2-(4-isobutylphenyl)propionate/knee (8 sprays/knee, each spray is to be applied to a different non-overlapping area around the knee, and the areas are to be uniformly distributed around the knee), BID (approximately every 12 hours; n=50) or placebo (8 sprays/knee), BID (approximately every 12 hours; n=25) for a total of 16 sprays per knee per day.
The VAS version of the WOMAC will be used for the Primary and Secondary Efficacy Endpoints. Efficacy endpoints will be assessed at Screening and Baseline (Day 1) and at the Week 2, Week 4, Week 8, and Week 12/EOS visits.
The Primary Efficacy Endpoint is the change from Baseline in the WOMAC (VAS) pain subscale score for the target knee at […] of treatment.
3.9.2. Secondary Efficacy Endpoints: • 1. Change from Baseline in the WOMAC (VAS) pain subscale score for the target knee at 2, 4, and 8 weeks of treatment; • 2. Change from Baseline in the WOMAC (VAS) stiffness subscale scores for the target knee and WOMAC (VAS) functional ability subscale scores at 2, 4, 8, and 12 weeks of treatment; • 3. Change from Baseline in the overall WOMAC (VAS) score at 2, 4, 8, and 12 weeks of treatment.
The Primary Efficacy Endpoint is change from Baseline in the WOMAC (VAS) pain subscale score for the target knee at 4 weeks of treatment, and will be analyzed using an analysis of covariance (ANCOVA). Treatment will be included as a fixed class effect and WOMAC Baseline pain subscale score as covariates. The primary comparisons of interest will be the difference between active Group A (8.75 mg 2-(diethylamino)ethyl 2-(4-isobutylphenyl)propionate/knee) and combined placebo, active Group B (17.5 mg 2-(diethylamino)ethyl 2-(4-isobutylphenyl)propionate/knee) and combined placebo, and active Group C (35 mg 2-(diethylamino)ethyl 2-(4-isobutylphenyl)propionate/knee) and combined placebo. […]

[1] = 8.75 mg/knee (BID), Follow up (week 13, day 91)
[2] = 8.75 mg/knee (BID), Week 2 (day 14)
[3] = 8.75 mg/knee (BID), Week 4 (day 28)
[4] = 8.75 mg/knee (BID), Week 8 (day 56)
[5] = 8.75 mg/knee (BID), Week 12 (day 84)
[6] = 17.5 mg/knee (BID), Follow up (week 13, day 91)
[7] = 17.5 mg/knee (BID), Week 2 (day 14)
[8] = 17.5 mg/knee (BID), Week 4 (day 28)
[9] = 17.5 mg/knee (BID), Week 8 (day 56)
[10] = 17.5 mg/knee (BID), Week 12 (day 84)
[11] = 35 mg/knee (BID), Follow up (week 13, day 91)
[12] = 35 mg/knee (BID), Week 2 (day 14)
[13] = 35 mg/knee (BID), Week 4 (day 28)
[14] = 35 mg/knee (BID), Week 8 (day 56)
[15] = 35 mg/knee (BID), Week 12 (day 84)

CCN(CC)CCOC(=O)C(C)c1ccc(CC(C)C)cc1 (stereo not drawn) [2-(diethylamino)ethyl 2-(4-isobutylphenyl)propionate]
Change of WOMAC pain score from baseline (±SEM), adjusted by […] of the testing drug amount [1]: −34.5(±5.6) mm | Percentage of improvement from baseline, WOMAC pain score, adjusted by […] of the testing drug amount [1]: −57.6% | Change of WOMAC pain score from baseline (±SEM) [1]: −20.1(±3.25) mm | Percentage of improvement from baseline, WOMAC pain score [1]: −33.6% | Change of WOMAC pain score from baseline (±SEM), adjusted by […] of the testing drug amount [2]: −19.2(±4.1) mm | Percentage of improvement from baseline, WOMAC pain score, adjusted by […] of the testing drug amount [2]: −32.1% | Change of WOMAC pain score from baseline (±SEM) [2]: −11.2(±2.39) mm | Percentage of improvement from baseline, WOMAC pain score [2]: −18.7% | Change of WOMAC pain score from baseline (±SEM), adjusted by […] of the testing drug amount [3]: −29.2(±4.8) mm | Percentage of improvement from baseline, WOMAC pain score, adjusted by […] of the testing drug amount [3]: −48.7% | Change of WOMAC pain score from baseline (±SEM) [3]: −17.0(±2.79) mm | Percentage of improvement from baseline, WOMAC pain score [3]: −28.4% | Change of WOMAC pain score from baseline (±SEM), adjusted by […] of the testing drug amount [4]: −36.7(±4.8) mm | Percentage of improvement from baseline, WOMAC pain score, adjusted by […] of the testing drug amount [4]: −61.4% | Change of WOMAC pain score from baseline (±SEM) [4]: −21.4(±2.81) mm | Percentage of improvement from baseline, WOMAC pain score [4]: −35.8% | Change of WOMAC pain score from baseline (±SEM), adjusted by […] of the testing drug amount [5]: −37.0(±5.4) mm | Percentage of improvement from baseline, WOMAC pain score, adjusted by […] of the testing drug amount [5]: −61.9% | Change of WOMAC pain score from baseline (±SEM) [5]: −21.6(±3.13) mm | Percentage of improvement from baseline, WOMAC pain score [5]: −36.1% | Change of WOMAC pain score from baseline (±SEM), adjusted by […] of the testing drug amount [6]: −37.9(±5.2) mm | Percentage of improvement from baseline, WOMAC pain score, adjusted by […] of the testing drug amount [6]: −62.1% | Change of WOMAC pain score from baseline (±SEM) [6]: −22.1(±3.01) mm | Percentage of improvement from baseline, WOMAC pain score [6]: −36.2% | Change of WOMAC pain score from baseline (±SEM), adjusted by […] of the testing drug amount [7]: −25.7(±3.7) mm | Percentage of improvement from baseline, WOMAC pain score, adjusted by […] of the testing drug amount [7]: −42.2% | Change of WOMAC pain score from baseline (±SEM) [7]: −15.0(±2.18) mm | Percentage of improvement from baseline, WOMAC pain score [7]: −24.6% | Change of WOMAC pain score from baseline (±SEM), adjusted by […] of the testing drug amount [8]: −35.2(±4.8) mm | Percentage of improvement from baseline, WOMAC pain score, adjusted by […] of the testing drug amount [8]: −57.6% | Change of WOMAC pain score from baseline (±SEM) [8]: −20.5(±2.79) mm | Percentage of improvement from baseline, WOMAC pain score [8]: −33.6% | Change of WOMAC pain score from baseline (±SEM), adjusted by […] of the testing drug amount [9]: −43.1(±4.9) mm | Percentage of improvement from baseline, WOMAC pain score, adjusted by […] of the testing drug amount [9]: −70.5% | Change of WOMAC pain score from baseline (±SEM) [9]: −25.1(±2.88) mm | Percentage of improvement from baseline, WOMAC pain score [9]: −41.1% | Change of WOMAC pain score from baseline (±SEM), adjusted by […] of the testing drug amount [10]: −45.5(±5.0) mm | Percentage of improvement from baseline, WOMAC pain score, adjusted by […] of the testing drug amount [10]: −74.4% | Change of WOMAC pain score from baseline (±SEM) [10]: −26.5(±2.94) mm | Percentage of improvement from baseline, WOMAC pain score [10]: −43.4% | Change of WOMAC pain score from baseline (±SEM), adjusted by […] of the testing drug amount [11]: −41.2(±5.3) mm | Percentage of improvement from baseline, WOMAC pain score, adjusted by […] of the testing drug amount [11]: −69.5% | Change of WOMAC pain score from baseline (±SEM) [11]: −24.0(±3.09) mm | Percentage of improvement from baseline, WOMAC pain score [11]: −40.5% | Change of WOMAC pain score from baseline (±SEM), adjusted by […] of the testing drug amount [12]: −21.6(±4.0) mm | Percentage of improvement from baseline, WOMAC pain score, adjusted by […] of the testing drug amount [12]: −36.5% | Change of WOMAC pain score from baseline (±SEM) [12]: −12.6(±2.33) mm | Percentage of improvement from baseline, WOMAC pain score [12]: −21.3% | Change of WOMAC pain score from baseline (±SEM), adjusted by […] of the testing drug amount [13]: −30.4(±4.4) mm | Percentage of improvement from baseline, WOMAC pain score, adjusted by […] of the testing drug amount [13]: −51.2% | Change of WOMAC pain score from baseline (±SEM) [13]: −17.7(±2.54) mm | Percentage of improvement from baseline, WOMAC pain score [13]: −29.9% | Change of WOMAC pain score from baseline (±SEM), adjusted by […] of the testing drug amount [14]: −38.1(±5.1) mm | Percentage of improvement from baseline, WOMAC pain score, adjusted by […] of the testing drug amount [14]: −64.3% | Change of WOMAC pain score from baseline (±SEM) [14]: −22.2(±2.97) mm | Percentage of improvement from baseline, WOMAC pain score [14]: −37.5% | Change of WOMAC pain score from baseline (±SEM), adjusted by […] of the testing drug amount [15]: −43.6(±5.2) mm | Percentage of improvement from baseline, WOMAC pain score, adjusted by […] of the testing drug amount [15]: −73.6% | Change of WOMAC pain score from baseline (±SEM) [15]: −25.4(±3.04) mm | Percentage of improvement from baseline, WOMAC pain score [15]: −42.9%
